From ChEMBL document CHEMBL1201862, “PubChem BioAssay data set” (2004) come the findings set out here.

Test systems include A549; HCT-116; HCT-15; HL-60; IGROV-1; KM12; M14; Malme-3M; NCI-H23; NCI/ADR-RES; RPMI-8226; SF-268; SF-295; SK-MEL-5; SK-OV-3; SNB-75; SR; UACC-257; CAKI-1; T47D.
Experiment in all cases: NCI anticancer screen, dose series, 48 h

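Protocol summary: plate cells (96-well), add compound at 5 concentrations, incubate 48 h, interpolate endpoints linearly. GI50 is the concentration that inhibits growth by half.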 The source made the active and inactive calls. No stated cut-off is given here; in the data, active = GI50 up to about 1.1 µM and inactive = higher.

On to `O=C(NS(=O)(=O)Nc1ccc(Cl)cc1)OCc1ccc(Cl)cc1Cl`, for which the GI50 is 21.8 µM (inactive) in the experiment on A549; 20 µM (inactive) in the experiment with HCT-116; 34.3 µM in the experiment on HCT-15; 25.3 µM (inactive) in the experiment on HL-60; 17.8 µM (inactive) in the experiment with IGROV-1; 21.4 µM (inactive) in the experiment on KM12. Further, the GI50 in the experiment on M14 is 41 µM (inactive); in the experiment with Malme-3M it was 19.1 µM (inactive); in the experiment with NCI-H23, 20.2 µM (inactive); with NCI/ADR-RES, 21.9 µM (inactive); in the experiment with RPMI-8226 it was 54.5 µM (inactive); with SF-268, 1.02 µM (active). Moreover, the GI50 is 17.2 µM (inactive) in the experiment with SF-295; 17.8 µM (inactive) in the experiment on SK-MEL-5; 21.1 µM (inactive) with SK-OV-3; 35.7 µM (inactive) in the experiment with SNB-75; 38.2 µM (inactive) with SR; 46.6 µM (inactive) with UACC-257.
In the case of `C[C@]12CCC(=O)C=C1CC[C@@H]1C2CC[C@]2(C)Nc3c(ncn3-c3ccc(F)cc3)CC12` (stereo partly specified), the GI50 with A549 was 21.9 µM (inactive); in the experiment with CAKI-1, 46.2 µM (inactive); with HCT-116, 15 µM (inactive); in the experiment with HL-60 it was 3.2 µM (inactive); with IGROV-1, 52.4 µM (inactive); in the experiment with KM12, 17.2 µM (inactive). The GI50 is 23.8 µM (inactive) in the experiment on M14; 18.9 µM (inactive) with Malme-3M; 23.1 µM (inactive) in the experiment on NCI-H23; 19.1 µM (inactive) in the experiment on SF-268; 15.3 µM (inactive) in the experiment with SF-295; 13.5 µM (inactive) in the experiment with SK-MEL-5. The GI50 with SK-OV-3 was 39.3 µM (inactive); in the experiment on SNB-75, 17.5 µM (inactive); with SR, 3.34 µM (inactive); with T47D, 18.3 µM (inactive); in the experiment on UACC-257 it was 17.8 µM (inactive).
For the molecule `CN1C(=O)N(C)C(O)C(Cl)(Br)C1=O` (stereo unspecified), the GI50 is > 100 µM (inactive) with A549; > 100 µM (inactive) in the experiment with CAKI-1; > 100 µM (inactive) in the experiment with HCT-116; above 100 µM in the experiment on HCT-15; > 100 µM (inactive) in the experiment with HL-60; > 100 µM (inactive) with IGROV-1. Besides, the GI50 in the experiment on KM12, in the experiment on M14, in the experiment on Malme-3M, in the experiment on NCI-H23, in the experiment with NCI/ADR-RES and in the experiment with RPMI-8226 was > 100 µM (inactive) in each case. For the same molecule, the GI50 in the experiment with SF-268, in the experiment with SF-295, in the experiment on SK-MEL-5, with SK-OV-3, with SNB-75 and in the experiment on SR was > 100 µM (inactive) in each case. In addition, in the experiment on UACC-257, the GI50 was > 100 µM (inactive).
Take `COc1cc2c[n+]3c4c(c2c(OC)c1OC)CCCC4CC3` (stereo unspecified): the GI50 was > 100 µM (inactive) with A549; > 100 µM (inactive) in the experiment on CAKI-1; > 100 µM (inactive) in the experiment on HCT-116; above 100 µM with HCT-15; > 100 µM (inactive) in the experiment with IGROV-1; 30.1 µM (inactive) in the experiment with KM12. Further, the GI50 in the experiment on M14 was > 100 µM (inactive); in the experiment with Malme-3M, 15.5 µM (inactive); with NCI-H23 it was 34.8 µM (inactive); in the experiment on NCI/ADR-RES, > 100 µM (inactive); in the experiment on RPMI-8226 it was > 100 µM (inactive); in the experiment with SF-295, > 100 µM (inactive). The GI50 is 19.3 µM (inactive) in the experiment on SK-MEL-5, > 100 µM (inactive) with SK-OV-3, 27.9 µM (inactive) in the experiment with T47D and 35.6 µM (inactive) in the experiment with UACC-257.
On to `CSc1nc(Cl)c2c(n1)Sc1nc3cc4c(cc3n1C2O)OCCO4` (stereo unspecified), for which the GI50 in the experiment with A549 was 0.126 µM (active); with HCT-116, 0.0146 µM (active); in the experiment with HCT-15 it was 0.104 µM; in the experiment on IGROV-1, 0.138 µM (active); in the experiment on KM12, 0.06 µM (active); with M14 it was 0.0951 µM (active). For the same molecule, the GI50 in the experiment on Malme-3M is 0.847 µM (active); in the experiment on NCI-H23, 0.39 µM (active); in the experiment on NCI/ADR-RES it was 0.149 µM (active); in the experiment with RPMI-8226, 0.0318 µM (active); with SF-268 it was 0.459 µM (active); in the experiment with SF-295, 0.379 µM (active). In addition, the GI50 with SK-MEL-5 was 0.0703 µM (active); in the experiment with SK-OV-3, 0.445 µM (active); in the experiment with SNB-75, 1.74 µM (inactive); with T47D, 15.4 µM (inactive); in the experiment on UACC-257, 11.1 µM (inactive).
Regarding `Nc1nc(O)c([I+]c2ccccc2)c(=O)[nH]1`, the GI50 in the experiment with A549 is > 100 µM (inactive); in the experiment with CAKI-1, > 100 µM (inactive); in the experiment with HCT-116, > 100 µM (inactive); in the experiment on HCT-15, above 100 µM; with HL-60, > 100 µM (inactive); in the experiment on IGROV-1, > 100 µM (inactive). In addition, the GI50 with KM12, with Malme-3M, in the experiment on NCI-H23, with NCI/ADR-RES, in the experiment on RPMI-8226 and in the experiment on SF-268 was > 100 µM (inactive) throughout. Further, the GI50 with SF-295, in the experiment with SK-MEL-5, with SNB-75, in the experiment on SR and with UACC-257 was > 100 µM (inactive) each time.
Consider `CCCCCCOc1ccc(C(=O)NOCc2ccccc2)cc1`, for which the GI50 is > 100 µM (inactive) in the experiment on A549; > 100 µM (inactive) in the experiment with CAKI-1; > 100 µM (inactive) in the experiment with HCT-116; 63.8 µM in the experiment with HCT-15; 39.7 µM (inactive) in the experiment with HL-60; > 100 µM (inactive) in the experiment with IGROV-1. Moreover, the GI50 was > 100 µM (inactive) in the experiment with KM12; > 100 µM (inactive) with M14; > 100 µM (inactive) in the experiment with NCI-H23; > 100 µM (inactive) with NCI/ADR-RES; 42.2 µM (inactive) in the experiment with RPMI-8226; > 100 µM (inactive) in the experiment on SF-268. Moreover, the GI50 with SF-295 was > 100 µM (inactive); in the experiment with SK-MEL-5, > 100 µM (inactive); in the experiment with SK-OV-3, > 100 µM (inactive); in the experiment on SNB-75 it was > 100 µM (inactive); with SR, 18.5 µM (inactive); in the experiment on UACC-257, > 100 µM (inactive).
With `COc1cccc(C(=O)O[C@H]2[C@@H]3[C@]4(OC(C)=O)CO[C@@H]4C[C@H](O)[C@@]3(C)C(=O)[C@H](OC(C)=O)C3=C(C)[C@@H](OC(=O)[C@H](O)[C@@H](NC(=O)OC(C)(C)C)c4ccco4)C[C@]2(O)C3(C)C)c1`, the GI50 was < 0.00375 µM (active) in the experiment on A549; < 0.00375 µM (active) in the experiment on CAKI-1; < 0.00375 µM (active) with HCT-116; below 0.00375 µM in the experiment on HCT-15; < 0.00375 µM (active) with HL-60; < 0.00375 µM (active) in the experiment with IGROV-1. In addition, the GI50 in the experiment with KM12 is < 0.00375 µM (active); with M14 it was < 0.00375 µM (active); with Malme-3M, 1.47 µM (inactive); in the experiment with NCI-H23 it was 6.04 µM (inactive); with NCI/ADR-RES, 0.0107 µM (active); with RPMI-8226, < 0.00375 µM (active). Further, the GI50 in the experiment with SF-268, with SF-295, in the experiment with SK-MEL-5, in the experiment with SK-OV-3, in the experiment on SNB-75 and with SR was < 0.00375 µM (active) in each case. Further, the GI50 in the experiment on UACC-257 was 21.3 µM (inactive).
